Experimental data from patent publication US20130287688A1, “NOVEL COMPOSITIONS AND USES OF ANTI-HYPERTENSION AGENTS FOR CANCER THERAPY” (XTUIT PHARMACEUTICALS, INC., priority 2010, published 2013).

Assays:
[1] = tested on: E0771 breast tumors; assay: Tumor matrix level histology (collagen I); set-up: species or system SCID mouse; details: mouse, in vivo
Description: Collagen levels were used as a metric of matrix production as described in Diop-Frimpong et al., Proc Nall Acad Sci USA. […] Next, solid stress in these tumors was measured using recently established technique described in Stylianopoulos T, et al., Growth-induced mechanical stress in murine and human tumors: causes, consequences and remedies. under review.
Vessel perfusion, matrix level, and hypoxia histology: For breast tumors, mice bearing orthotopic E0771 were split into treatment groups, time-matched for time after implantation and size-matched for tumor volume at this time (−100 mm^3). For pancreatic tumors, mice bearing orthotopic AK4.4 were split into treatment groups, size-matched for tumor volume (˜22 mm^3), 6 days after implantation. […] On the day of the last treatment, mice were slowly (−2 min) injected with 100 μL of 1 mg/mL biotinylated lectin (Vector Labs), administered retro-orbitally 5 min prior to tumor removal. For hypoxia studies, the mice were also injected with 60 mg/kg of 10 mg/mL pimonidazole 1 hr prior to tumor removal. […] For matrix staining, collagen I was detected using the LF-67 antibody provided by Dr. Larry Fisher (National Institute of Dental Research, Bethesda, Md.).
Histological image analysis: Eight random images (four interior, four periphery) at 20× magnification were taken from each slide using a confocal microscope (Olympus). […] For perfusion, the number of vessels counted by this program with colocalization of lectin and CD31 staining was divided by the number of vessels counted with CD31 staining. For vessel metrics, including diameter and density, the program determined the average size of all counted vessels and their length, as well as the count per area Images of collagen I stained sections were analyzed based on the area fraction of positive staining and on the average staining intensity (concentration) in each image. […] Images of hypoxia staining with pimonidazole were similarly analyzed for the area fraction of positive staining, counting the fraction of pixels above a threshold based on background intensity.

[2] = tested on: E0771 tumors; assay: Solid stress (tumor opening technique); set-up: species or system mice; details: mouse, in vivo
Description: Solid stress was assessed using an ex vivo technique involving the measurement of the extent of tumor tissue relaxation (tumor opening relative to tumor diameter) following a stress-releasing incision, with larger openings indicating higher stress.
When the tumors reached a size of −1 cm in diameter, the mice were anesthetized. Subsequently, each tumor was excised, washed with Hanks' Balanced Salt Solution (HBSS) and its three dimensions were measured. Each tumor was cut along its longest axis, to a depth of 80% of its shortest dimension, using a scalpel. The tumors were allowed to relax for 10 minutes in HBSS to diminish any transient, poro-elastic responses. Afterwards, the opening resulting from the cut was measured at the middle of the cut at the surface of the tumor. Solid stress is proportional to the size of the opening relative to the size of the dimension perpendicular to the cut.

[3] = tested on: tumors; assay: Solid stress after a panel of ARBs; format: in vivo; details: 40 mg/kg losartan, 3.2 mg/kg candesartan, 32 mg/kg valsartan
Description: Solid stress levels in tumors after angiotensin inhibition using the ARBs losartan, candesartan, and valsartan are shown. Doses were chosen based on their relative doses in patients for hypertension indications (40 mg/kg losartan, 3.2 mg/kg candesartan, 32 mg/kg valsartan). […] Animal numbers n=6-7. Statistical tests were corrected for multiple comparisons using the Holm-Bonferroni method.
The mechanism responsible for the increase in tumor vessel perfusion by losartan was investigated. Desmoplasia, high stromal cell and matrix density, is a major contributor to the solid stress accumulation that compresses vessels (Stylianopoulos T, et al., Growth-induced mechanical stress in murine and human tumors: causes, consequences and remedies. under review. 2012). Since angiotensin inhibitors reduce matrix production in tumors (Diop-Frimpong B, et al., Proc Natl Acad Sci USA. 2011; 108(7): 2909-14), it was hypothesized that they decompress vessels and increase perfusion by decreasing solid stress. Collagen levels were used as a metric of matrix production as described in Diop-Frimpong et al., Proc Nall Acad Sci USA. […] Moreover, losartan decreased collagen I concentration, measured based on staining intensity, in E0771 and AK4.4 tumors (FIGS. 24B-24C). Of note, dense collagen seemed to colocalize with low-perfusion areas (FIG. 24C). Next, solid stress in these tumors was measured using recently established technique described in Stylianopoulos T, et al., Growth-induced mechanical stress in murine and human tumors: causes, consequences and remedies. under review. 2012. […]
Solid stress: Solid stress was measured using the tumor opening technique as described previously (Stylianopoulos T, et al., Growth-induced mechanical stress in murine and human tumors: causes, consequences and remedies. under review. 2012). […] Subsequently, each tumor was excised, washed with Hanks' Balanced Salt Solution (HBSS) and its three dimensions were measured. […] Afterwards, the opening resulting from the cut was measured at the middle of the cut at the surface of the tumor. […]

[4] = tested on: E0771 breast tumors; assay: Breast tumor growth and survival studies; format: in vivo, mice
Description: (§1) Breast tumor growth and survival studies: Mice bearing orthotopic E0771 or 4T1 breast tumors were split into treatment groups, time-matched for time after implantation and size-matched for tumor volume at this time (110-111 mm^3 in E0771, in 4T1). […] The primary tumors were then measured every 2 days, beginning on day 0, using calipers. Tumor growth was quantified using the time for each to reach double its initial volume Animal survival was quantified based on time of death after initiation of treatment or time to reach excessive tumor burden (>1000 mm^3).

[5] = tested on: 4T1 breast tumors; assay: Breast tumor growth and survival studies; format: in vivo, mice
Text: In FIG. 35B, the quantification of tumor growth rates, based on the time to reach double the initial volume, is shown.
In FIG. 35C, the animal survival following the initiation of treatment is shown. […] Statistical tests were corrected for multiple comparisons using the Holm-Bonferroni method.
as §1

[6] = agent given alone (losartan 40 mg/kg daily or doxorubicin 2 mg/kg every three days)

For NCCCC[C@H](N[C@@H](CCc1ccccc1)C(=O)O)C(=O)N1CCC[C@H]1C(=O)O [lisinopril], which “matrix production, collagen I area fraction” value [1] is on record?
The value was “decreases”.

What about the solid stress [2] of the same compound?
Its solid stress is “reduces solid stress”.

With CCOc1nc2cccc(C(=O)O)c2n1Cc1ccc(-c2ccccc2-c2nnn[nH]2)cc1 [candesartan] as the compound, how does the solid stress [3] read?
The solid stress was “reduce solid stress to a similar degree”.

For COc1cccc2c1C(=O)c1c(O)c3c(c(O)c1C2=O)C[C@@](O)(C(=O)CO)C[C@@H]3O[C@H]1C[C@H](N)[C@H](O)[C@H](C)O1 [doxorubicin], which tumor growth rate [4, 6] is on record?
Its tumor growth rate is “no significant effect”.

And the median survival ([4]; doxorubicin alone)?
Its median survival is 16 days.

And the tumor growth rate [5, 6]?
The tumor growth rate was “no significant effect”.

And the survival ([5]; monotherapy)?
The survival was “improves survival”.

For CCCCC(=O)N(Cc1ccc(-c2ccccc2-c2nnn[nH]2)cc1)[C@H](C(=O)O)C(C)C [valsartan], which solid stress [3] is on record?
Its solid stress is “reduce solid stress to a similar degree”.
